Test results reported in patent US20220348590A1, “CYCLOOXYGENASE-2 INHIBITORS AND USES THEREOF” (The Board Institute, Inc., priority 2019, published 2022).
Converted amounts (≈) assume the structure as drawn. Read-outs that look alike come from different tables or passages of the source.

Columns and labels:
[1] = mouse plasma protein binding (PPB) assay; assay type: in vitro ADME; conditions: average, read-out: Mouse Plasma Protein Binding % Bound Avg (converted)
Procedure, shortened: (§1)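 Ligands are incubated in vitro with mouse, rat or human plasma, or with mouse brain, and the fraction remaining free is determined.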

[2] = rat plasma protein binding (PPB) assay; assay type: in vitro ADME; conditions: average, read-out: Rat Plasma Protein Binding % Bound Avg (converted)
Procedure, shortened: as §1

[3] = human plasma protein binding (PPB) assay; assay type: in vitro ADME; conditions: average, read-out: Human Plasma Protein Binding % Bound Avg (converted)
Experimental: We have adapted a previously reported cyclooxygenase enzymatic assay utilizing LCMS quantification of PGE2 as the product of COX-1 and COX2 catalyzed conversion of arachidonic acid to evaluate the binding properties of newly synthesized ligands [Cao, 2011]. These optimized and miniaturized (384-well plates) LCMS-based COX-1 and COX2 enzymatic assays enabled us to quickly evaluate newly synthesized ligands for COX2 binding affinity and selectivity vs COX-1. Using a shorter ligand-enzyme incubation time in the LCMS assay (2 minutes vs 10 minutes) also permitted us to prioritize ligands with faster binding kinetics. Considering the relatively slow on-rate kinetics of known coxibs, due to their 3-step binding mechanism [Marnett, 2009], we believe that optimizing this critical parameter will be key to the successful development of a COX2 PET tracer. Using these enzymatic assays, we have evaluated>200 newly synthesized ligands against COX2 and >20 ligands against COX-1. Another critical property necessary for a good PET radiotracer is to have low non-specific binding (NSB) to increase the free fraction and maximize the signal to noise ratio. This property can be evaluated using in-vitro protein binding assays, and we have now evaluated>50 newly synthesized ligands in mouse, rat and human plasma protein binding (PPB) assays as well as >15 ligands in a mouse brain protein binding (BPB) assay.

PBS Solubility (no DMSO) = assay type: physicochemical; conditions: aqueous buffer, thermodynamic from solid, average
[4] = Human Plasma Protein Stability (% Remaining); assay type: in vitro ADME; conditions: average
[5] = Rat Plasma Protein Stability (% Remaining); assay type: in vitro ADME; conditions: average
[6] = biological target: T1, human recombinant COX2 (hCOX2) (UniProt P35354); test: LCMS-based COX2 enzymatic inhibition assay (PGE2 quantification); assay type: biochemical; parameters: COX2 2 minutes pge2/pge2d4 area ratio Avg; other: 2 minutes; readout pge2/pge2d4 area ratio; average; COX2 2 minutes pge2/pge2d4 area ratio Avg; LLE; average LLE; COX2 2 minutes pge2 area (counts) Avg; readout pge2 area (counts); other: 2 min; "ovine COX2 (oCOX2), human recombinant COX2 (hCOX2)"; conditions: 2 minutes; for COX2 2 minutes pge2/pge2d4 area ratio Avg. LLE / COX2 2 minutes pge2 area (counts) Avg. LLE: average LLE; for IC50: average
T1 sequence (P35354 1-604): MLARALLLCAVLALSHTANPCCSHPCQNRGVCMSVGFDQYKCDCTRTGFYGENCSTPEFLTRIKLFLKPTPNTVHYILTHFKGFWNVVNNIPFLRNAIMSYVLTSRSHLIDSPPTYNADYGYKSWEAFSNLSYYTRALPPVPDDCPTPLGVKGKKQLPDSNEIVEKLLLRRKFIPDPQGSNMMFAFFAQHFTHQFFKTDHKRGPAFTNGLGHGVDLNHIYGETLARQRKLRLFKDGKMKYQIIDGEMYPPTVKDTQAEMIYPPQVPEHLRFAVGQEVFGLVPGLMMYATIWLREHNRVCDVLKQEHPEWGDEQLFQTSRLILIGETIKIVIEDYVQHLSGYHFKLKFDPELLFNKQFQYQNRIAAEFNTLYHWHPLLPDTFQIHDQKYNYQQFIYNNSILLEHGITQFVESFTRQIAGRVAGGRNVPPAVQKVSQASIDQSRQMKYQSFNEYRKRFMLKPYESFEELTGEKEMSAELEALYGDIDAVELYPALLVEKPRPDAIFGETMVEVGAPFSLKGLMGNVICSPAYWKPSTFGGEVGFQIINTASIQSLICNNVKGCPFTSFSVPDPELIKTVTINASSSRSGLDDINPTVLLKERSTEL
Procedure, shortened: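 Ovine COX-1 (0.1 μg) or human recombinant COX2 (0.2 μg) in 100 mM Tris.HCl pH 8.0 with hematin and epinephrine, preincubated with inhibitor 10 min at 37 °C. Reaction with 5 μM arachidonic acid stopped after 2 min with HCl; PGE2 quantified by LC-MS-MS. IC50 from 12 concentrations in triplicate.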

[7] = readout pge2/pge2d4 area ratio, read-out: COX2 2 minutes pge2/pge2d4 area ratio Avg. IC50
[8] = readout pge2 area (counts), read-out: COX2 2 minutes pge2 area (counts) Avg. IC50

fraction unbound [1]	fraction unbound [2]	fraction unbound [3]	solubility (PBS Solubility (no DMSO))	Human Plasma Protein Stability % Remaining Avg [4]	Rat Plasma Protein Stability % Remaining Avg [5]	COX2 2 minutes pge2/pge2d4 area ratio Avg. LLE ([6]; readout pge2/pge2d4 area ratio)	IC50 [6, 7]	COX2 2 minutes pge2 area (counts) Avg. LLE ([6]; readout pge2 area (counts))	IC50 [6, 8]	SMILES
0.079	0.052	0.024	37 µM (≈ 12 µg/mL)	97%	94.1%	4.232	17.2 nM	4.214	17.4 nM	CS(=O)(=O)c1ccc(-c2cccc(/C=C\c3ccoc3)n2)cc1 [Compound 35, 2-[(Z)-2-(furan-3-yl)ethenyl]-6-(4-methanesulfonylphenyl)pyr]
0.118	0.087	0.091	27 µM (≈ 8.87 µg/mL)	100%	102.8%		17.5 nM		18.2 nM	CS(=O)(=O)c1ccc(-c2cccc(NCc3ccco3)n2)cc1 [Compound 36]
0.07	0.068	0.071	88 µM (≈ 28.9 µg/mL)	102.5%	105.1%	4.86	21.2 nM	4.974	15.5 nM	CS(=O)(=O)c1ccc(-c2cccc(NCc3ccoc3)n2)cc1 [Compound 47, N-(furan-3-ylmethyl)-6-(4-(methylsulfonyl)phenyl)pyridin-2-amine]
